For six compounds, mutagenic call results are on record in PubChem BioAssay AID1259407 (Chemical Carcinogenesis Research Information System (CCRIS), 2018).

The source made the active and inactive calls. The rule behind the calls is not given here.

In the data set the test system is CCRIS mutagenicity, Ames/micronucleus/aberration tests. Nature of the data set: CCRIS mutagenicity studies.
Setting [1] is: Test System: AMES SALMONELLA TYPHIMURIUM, Strain/Indicator: TA98, Metabolic Activation: NONE, Method: PREINCUBATION
[2] abbreviates: Test System: AMES SALMONELLA TYPHIMURIUM, Strain/Indicator: TA100, Metabolic Activation: NONE, Method: PREINCUBATION
The mark [3] stands for this setting: Test System: AMES SALMONELLA TYPHIMURIUM, Strain/Indicator: TA1535, Metabolic Activation: NONE, Method: PREINCUBATION
[4] abbreviates: Test System: AMES SALMONELLA TYPHIMURIUM, Strain/Indicator: TA1537, Metabolic Activation: NONE, Method: PREINCUBATION

Regarding `COC1=CC(=O)C[C@@H](C)[C@]12Oc1c(Cl)c(OC)cc(OC)c1C2=O`, the mutagenic call reads like this: (End Point: IN VITRO CHROMOSOMAL ABERRATIONS, Test System: PERIPHERAL HUMAN BLOOD LYMPHOCYTES, Metabolic Activation: NONE) “active; positive (ploidy changes)”; (End Point: IN VITRO MICRONUCLEUS, Test System: CHO CELLS, Metabolic Activation: RAT, LIVER, S-9, AROCLOR 1254) “active; positive”; (End Point: IN VITRO MICRONUCLEUS, Test System: V79 CELLS, Metabolic Activation: NONE) “active; positive”; (Test System: AMES SALMONELLA TYPHIMURIUM, Strain/Indicator: TA97, Metabolic Activation: HAMSTER, LIVER, S-9, AROCLOR 1254 (10 OR 30%), Method: PREINCUBATION) “inactive; negative”; (Test System: AMES SALMONELLA TYPHIMURIUM, Strain/Indicator: TA97, Metabolic Activation: NONE, Method: PREINCUBATION) “inactive; negative”; (Test System: AMES SALMONELLA TYPHIMURIUM, Strain/Indicator: TA97, Metabolic Activation: RAT, LIVER, S-9, AROCLOR 1254 (10 OR 30%), Method: PREINCUBATION) “inactive; negative”. For the same compound, the mutagenic call was “inactive; negative” (Test System: AMES SALMONELLA TYPHIMURIUM, Strain/Indicator: TA98, Metabolic Activation: HAMSTER, LIVER, S-9, AROCLOR 1254 (10 OR 30%), Method: PREINCUBATION); “inactive; negative” under setting [1]; “inactive; negative” (Test System: AMES SALMONELLA TYPHIMURIUM, Strain/Indicator: TA98, Metabolic Activation: RAT, LIVER, S-9, AROCLOR 1254 (10 OR 30%), Method: PREINCUBATION); “inactive; negative” (Test System: AMES SALMONELLA TYPHIMURIUM, Strain/Indicator: TA100, Metabolic Activation: HAMSTER, LIVER, S-9, AROCLOR 1254 (10 OR 30%), Method: PREINCUBATION); “inactive; negative” under setting [2]; “inactive; negative” (Test System: AMES SALMONELLA TYPHIMURIUM, Strain/Indicator: TA100, Metabolic Activation: RAT, LIVER, S-9, AROCLOR 1254 (10 OR 30%), Method: PREINCUBATION). The mutagenic call (Test System: AMES SALMONELLA TYPHIMURIUM, Strain/Indicator: TA100, Metabolic Activation: RAT, LIVER, S-9, PHENOBARBITAL, Method: PREINCUBATION) is “inactive; negative”; the mutagenic call (Test System: AMES SALMONELLA TYPHIMURIUM, Strain/Indicator: TA1535, Metabolic Activation: HAMSTER, LIVER, S-9, AROCLOR 1254 (10 OR 30%), Method: PREINCUBATION) is “inactive; negative”; the mutagenic call under setting [3] was “inactive; negative”; the mutagenic call (Test System: AMES SALMONELLA TYPHIMURIUM, Strain/Indicator: TA1535, Metabolic Activation: RAT, LIVER, S-9, AROCLOR 1254 (10 OR 30%), Method: PREINCUBATION) was “inactive; negative”; the mutagenic call (Test System: AMES SALMONELLA TYPHIMURIUM, Strain/Indicator: TA1537, Metabolic Activation: HAMSTER, LIVER, S-9, AROCLOR 1254 (30%), Method: PREINCUBATION) was “inactive; negative”; the mutagenic call under setting [4] is “inactive; negative”. In addition, the mutagenic call was “inactive; negative” (Test System: AMES SALMONELLA TYPHIMURIUM, Strain/Indicator: TA1537, Metabolic Activation: RAT, LIVER, S-9, AROCLOR 1254 (30%), Method: PREINCUBATION); “active; positive” (Test System: MOUSE LYMPHOMA, Strain/Indicator: L5178Y (TK+/TK-), Metabolic Activation: NONE, Method: MICROWELL); “active; positive” (Test System: MOUSE LYMPHOMA, Strain/Indicator: L5178Y (TK+/TK-), Metabolic Activation: S-9, Method: MICROWELL).

Turning to `O=C(O)c1ccc(S(=O)(=O)N(Cl)Cl)cc1`, the mutagenic call by setting is: (Test System: AMES SALMONELLA TYPHIMURIUM, Strain/Indicator: TA98, Metabolic Activation: HAMSTER, LIVER, S-9, AROCLOR 1254 (10%), Method: PREINCUBATION) “inactive; negative”; under setting [1], “inactive; negative”; (Test System: AMES SALMONELLA TYPHIMURIUM, Strain/Indicator: TA98, Metabolic Activation: RAT, LIVER, S-9, AROCLOR 1254 (10%), Method: PREINCUBATION) “inactive; negative”; (Test System: AMES SALMONELLA TYPHIMURIUM, Strain/Indicator: TA100, Metabolic Activation: HAMSTER, LIVER, S-9, AROCLOR 1254 (10%), Method: PREINCUBATION) “inactive; negative”; under setting [2], “inactive; negative”; (Test System: AMES SALMONELLA TYPHIMURIUM, Strain/Indicator: TA100, Metabolic Activation: RAT, LIVER, S-9, AROCLOR 1254 (10%), Method: PREINCUBATION) “inactive; negative”. Also, the mutagenic call by setting is: (Test System: AMES SALMONELLA TYPHIMURIUM, Strain/Indicator: TA1535, Metabolic Activation: HAMSTER, LIVER, S-9, AROCLOR 1254 (10%), Method: PREINCUBATION) “inactive; negative”; under setting [3], “inactive; negative”; (Test System: AMES SALMONELLA TYPHIMURIUM, Strain/Indicator: TA1535, Metabolic Activation: RAT, LIVER, S-9, AROCLOR 1254 (10%), Method: PREINCUBATION) “inactive; negative”; (Test System: AMES SALMONELLA TYPHIMURIUM, Strain/Indicator: TA1537, Metabolic Activation: HAMSTER, LIVER, S-9, AROCLOR 1254 (10%), Method: PREINCUBATION) “inactive; negative”; under setting [4], “inactive; negative”; (Test System: AMES SALMONELLA TYPHIMURIUM, Strain/Indicator: TA1537, Metabolic Activation: RAT, LIVER, S-9, AROCLOR 1254 (10%), Method: PREINCUBATION) “inactive; negative”.

Turning to `OC[C@H]1O[C@@H](Oc2ccc(O)cc2)[C@H](O)[C@@H](O)[C@@H]1O`, the mutagenic call (Test System: Chinese hamster lung cells, Strain/Indicator: CHL (HPRT)/6-Thioguanine, Metabolic Activation: None, Method: Standard Plate) is “inactive; negative”.

For the compound `c1cc2ccc3cc4occc4c4ccc(c1)c2c34`, the mutagenic call is, setting by setting: (Test System: AMES SALMONELLA TYPHIMURIUM, Strain/Indicator: TA98, Metabolic Activation: NONE, Method: STANDARD PLATE) “inactive; negative”; (Test System: AMES SALMONELLA TYPHIMURIUM, Strain/Indicator: TA98, Metabolic Activation: RAT, LIVER, S-9, AROCLOR 1254, Method: STANDARD PLATE) “active; positive”.

As to `C`, the mutagenic call (End Point: In vitro chromosomal aberrations, Test System: Chinese hamster V79 lung fibroblast cells, Metabolic Activation: Rat, Liver, S9, Aroclor 1254) is “inactive; negative. material tested was baytubes, multi-walled carbon-nanotubes”; the mutagenic call (Test System: Ames Salmonella typhimurium, Strain/Indicator: TA98, Metabolic Activation: None, Method: Preincubation) was “inactive; negative. material tested was baytubes, multi-walled carbon-nanotubes”; the mutagenic call (Test System: Ames Salmonella typhimurium, Strain/Indicator: TA98, Metabolic Activation: Rat, Liver, S9, Aroclor 1254, Method: Preincubation) was “inactive; negative. material tested was baytubes, multi-walled carbon-nanotubes”; the mutagenic call (Test System: Ames Salmonella typhimurium, Strain/Indicator: TA100, Metabolic Activation: None, Method: Preincubation) is “inactive; negative. material tested was baytubes, multi-walled carbon-nanotubes”; the mutagenic call (Test System: Ames Salmonella typhimurium, Strain/Indicator: TA100, Metabolic Activation: Rat, Liver, S9, Aroclor 1254, Method: Preincubation) was “inactive; negative. material tested was baytubes, multi-walled carbon-nanotubes”; the mutagenic call (Test System: Ames Salmonella typhimurium, Strain/Indicator: TA102, Metabolic Activation: None, Method: Preincubation) was “inactive; negative. material tested was baytubes, multi-walled carbon-nanotubes”. The mutagenic call (Test System: Ames Salmonella typhimurium, Strain/Indicator: TA102, Metabolic Activation: Rat, Liver, S9, Aroclor 1254, Method: Preincubation) is “inactive; negative. material tested was baytubes, multi-walled carbon-nanotubes”; the mutagenic call (Test System: Ames Salmonella typhimurium, Strain/Indicator: TA1535, Metabolic Activation: None, Method: Preincubation) is “inactive; negative. material tested was baytubes, multi-walled carbon-nanotubes”; the mutagenic call (Test System: Ames Salmonella typhimurium, Strain/Indicator: TA1535, Metabolic Activation: Rat, Liver, S9, Aroclor 1254, Method: Preincubation) is “inactive; negative. material tested was baytubes, multi-walled carbon-nanotubes”; the mutagenic call (Test System: Ames Salmonella typhimurium, Strain/Indicator: TA1537, Metabolic Activation: None, Method: Preincubation) was “inactive; negative. material tested was baytubes, multi-walled carbon-nanotubes”; the mutagenic call (Test System: Ames Salmonella typhimurium, Strain/Indicator: TA1537, Metabolic Activation: Rat, Liver, S9, Aroclor 1254, Method: Preincubation) was “inactive; negative. material tested was baytubes, multi-walled carbon-nanotubes”.

`Cc1cc(S(=O)(=O)O)c([N+](=O)[O-])cc1[N+](=O)[O-]`: the mutagenic call was “inactive; negative” (End Point: In vitro chromosomal aberrations, Test System: V79 Chinese hamster fibroblasts, Metabolic Activation: None); “inactive; negative” (Test System: Ames Salmonella typhimurium, Strain/Indicator: TA98, Metabolic Activation: None, Method: Standard plate); “inactive; negative” (Test System: Ames Salmonella typhimurium, Strain/Indicator: TA98, Metabolic Activation: Rat, Liver, S-9, Method: Standard plate); “inactive; negative” (Test System: Ames Salmonella typhimurium, Strain/Indicator: TA100, Metabolic Activation: None, Method: Standard plate); “inactive; negative” (Test System: Ames Salmonella typhimurium, Strain/Indicator: TA100, Metabolic Activation: Rat, Liver, S-9, Method: Standard plate).
